Measurements reported in paper PMC4223017, “Structural Model of the hUbA1-UbcH10 Quaternary Complex: In Silico and Experimental Analysis of the Protein-Protein Interactions between E1, E2 and Ubiquitin” (PLoS ONE, 2014).
Entries after “also recorded” stand apart in the source; their conditions may differ. Values belong to the molecule of their own block, whether it stands above or below them. Residues, ends and D or L forms follow the SMILES beside them. *: point of attachment. Biotin = O=C1N[C@H]2[C@H](CS[C@H]2CCCCC(=O)*)N1; Ahx = NCCCCCC(=O)O

Columns and labels:
[1] = Solubility of the synthesized peptides (testability in binding assays); format: physicochemical; conditions: for Solubility: biotinylated peptide, not testable in binding assays; for solubility, in words: biotinylated peptides
Text: (§1) On the basis of the 3D model of the quaternary complex, we have designed six peptides as molecular probes in order to calibrate their ability to interfere the binding of UbcH10. This strategy was motivated by two main reasons. First, the identification of short peptides that mediate protein-protein interaction seemed a priori effective for disrupting the protein-protein recognition and binding. While other strategies, i.e. introduction of specific mutations, may also be envisaged, it is unclear whether single-point mutants might lead to a significant destabilization of the complex or even to impede the formation of the quaternary complex. Second, since our ultimate goal is the design of compounds that might disrupt the ubiquitilation process, testing a series of suitably chosen short peptides represents a valuable proof-of-concept for supporting the potential therapeutic effect of peptidomimetics. Specifically, the peptides were designed to examine the capability of hUbA1 stretches that contribute to the protein-protein interface with UbcH10 (Figure S7). In particular, we have designed two peptides per interface, which will be denoted S for SCCH region, L for cross loop, and U for UFD (Table 4). In the UFD region peptides U1 and U2 were selected to test the relevance of the acidic residues in mediating the binding of the UbcH10 H1 helix. […] Finally, peptides L1 and L2 were chosen to explore the role of the cross loop region in assisting the interaction with UbcH10. All the peptides were synthesized as biotinylated derivatives by solid phase method and purified by RP-HPLC. Unfortunately, S1 and U2 were insoluble and so not testable in binding assays. The ability of the soluble peptides to bind recombinant GST-UbcH10 was checked by ELISA, utilizing GST as control (data not shown).

[2] = target: T1, GST-UbcH10 (Homo sapiens, UniProt O00762); assay: ELISA binding of biotinylated peptides to coated GST-UbcH10; conditions: for KD (µM) / Kd: ELISA, wells coated overnight at 4°C with 100 µg/ml GST-UbcH10 in PBS 1X, 1 mM TCEP, biotinylated peptides at 2.2, 11, 22, 44, 108 µM in PBS 1X (1 mM TCEP for U1 and ScrU1), streptavidin-HRP, OPD, read at 490 nm, GraphPad Prism; for binding to UbcH10, in words: ELISA on recombinant GST-UbcH10, biotinylated peptides
T1 construct: made in house; host or cells: E. coli BL21 (DE3) RP
T1 sequence (O00762 1-179): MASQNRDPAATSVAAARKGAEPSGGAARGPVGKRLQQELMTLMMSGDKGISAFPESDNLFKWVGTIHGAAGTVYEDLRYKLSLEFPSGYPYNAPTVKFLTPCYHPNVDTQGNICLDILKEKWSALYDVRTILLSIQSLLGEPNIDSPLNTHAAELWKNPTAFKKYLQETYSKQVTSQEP
Protocol: The PCR product was cloned into pGEX-4T1 expression vector (GE Healthcare), leading to a protein with a cleavable N-terminal GST tag (GST-UbcH10). E. coli BL21 (DE3) RP strain was transformed with the recombinant plasmid for GST-UbcH10. Overnight cultures were used to inoculate 500 ml LB medium containing 50 µg/ml ampicillin, and protein induction was performed by the addition of 1 mM IPTG at 22°C when an OD600 value of 0.7 was reached. After approximately 16 h the cells were harvested and the proteins were isolated by sonicating cell pellets resuspended in 30 ml PBS1X in the presence of an EDTA free protease inhibitor cocktail (Roche Diagnostics). The crude cell extract was cleared by centrifugation at 18000 rpm and the supernatant was loaded onto a 1 ml GST-trap column connected to AKTA FPLC system (GE-Healthcare) equilibrated with binding buffer PBS1X. After washing with ten volumes of binding buffer, a single elution step was performed with 50 mM TrisHCl, 10 mM reduced glutathione. The fractions containing GST-UbcH10 were pooled and extensively dialyzed against PBS1X at 4°C. The homogeneity of the protein was tested by SDS–PAGE and mass spectrometry.
Wells were coated overnight at 4°C with 100 µg/ml GST-UbcH10 in PBS 1X, 1 mM TCEP, in the presence of an EDTA free protease inhibitor cocktail (Roche Diagnostics). Binding step was performed with different concentrations of biotinylated peptides L1, L2, ScrL2, U1, ScrU1, S2 (2.2, 11, 22, 44, 108 µM) in PBS 1X (with 1 mM TCEP for U1 and ScrU1). A blocking solution 1% BSA in PBS 1X, 0.05% Tween-20 was used. Washes were executed with PBS 1X, 0.05% Tween-20. To verify the interaction a 1∶10000 dilution of horseradish peroxidase-conjugated streptavidin (Sigma Aldrich) in 0.3% BSA, PBS 1X was incubated for 1 hour. The colorimetric reaction was carried out with SIGMA-FAST OPD reagent (Sigma Aldrich), according to the manufacturer's instructions. Finally, readings were performed at 490 nm on a Model680 MicroplateReader (Bio-Rad, Hercules, CA-USA), and data were recorded by Microplate Manager 5.2 program and elaborated by GraphPad Prism program. Negative control experiments with the fusion tag GST in coating were performed in the same conditions described above.
as §1, with “The ability of the soluble peptides to bind recombinant GST-UbcH10 was checked by ELISA, utilizing GST as control (data not shown).” left out

[3] = target: T2, GST-UbcH10 (UniProt O00762 1-179); assay: ELISA; wells coated overnight at 4°C with 100 µg/ml GST-UbcH10 in PBS, 1 mM TCEP; biotinylated peptides at 2.2, 11, 22, 44, 108 µM in PBS (1 mM TCEP for U1 and ScrU1); detection with streptavidin-HRP, reading at 490 nm; apparent KD; conditions: both partners purified
T2 construct: UbcH10, a Ubiquitin Conjugation Enzyme (E2); PCR product cloned into pGEX-4T1; The GST tag is cleavable but the fusion GST-UbcH10 was coated on the wells; PDB 1I7K (used only for modelling) lacks the first 30 residues and has Ser114; nothing says that the ELISA construct has these limits; also called E2; recombinant GST-UbcH10; source: E. coli BL21 (DE3) RP, purified (GST-trap column, dialysed …)
T2 sequence (looked up): T1 sequence (O00762 1-179)

Molecule: CC(C)C[C@H](NC(=O)[C@H](CCC(=O)O)NC(=O)CCCCCNC(=O)CCCC[C@@H]1SC[C@@H]2NC(=O)N[C@@H]21)C(=O)N[C@@H](CC(N)=O)C(=O)N[C@@H](CS)C(=O)N[C@@H](CC(=O)O)C(=O)N[C@H](C(=O)N[C@@H](CCC(=O)O)C(=O)N[C@H](C(=O)N[C@@H](CCC(=O)O)C(=O)NCC(=O)N[C@@H](CO)C(=O)N[C@@H](CC(=O)O)C(=O)N[C@@H](CS)C(N)=O)C(C)C)C(C)C [ScrU1] ({Biotin-Ahx}-ELNCDVEVEGSDC-NH2)
binding to UbcH10, in words [2]: very poor binding | Kd [2]: > 100 µM

Molecule: C[C@@H](O)[C@H](NC(=O)[C@H](CCCCN)NC(=O)[C@H](CO)NC(=O)[C@@H]1CCCN1C(=O)[C@H](CC(=O)O)NC(=O)[C@H](CO)NC(=O)CCCCCNC(=O)CCCC[C@@H]1SC[C@@H]2NC(=O)N[C@@H]21)C(=O)N[C@@H](CO)C(=O)N[C@@H](CCC(=O)O)C(=O)N[C@@H](Cc1ccc(O)cc1)C(=O)N[C@@H](CCC(N)=O)C(=O)N1CCC[C@H]1C(=O)N[C@@H](CO)C(=O)N[C@@H](CCC(=O)O)C(N)=O [ScrL2] ({Biotin-Ahx}-SDPSKTSEYQPSE-NH2)
binding to UbcH10, in words [2]: very poor binding | Kd [2]: > 80 µM

B1: U1-scrambled peptide (peptide)
peptide: {Biotin-Ahx}-ELNCDVEVEGSDC-NH2
modifications: cysteine pairing not given here
notes: scrambled order of the residues of peptide U1; also called ScrU1; source: synthetic peptide (Fmoc solid phase, RP-HPLC purified)
Kd [3]: > 100 µM

B2: U1 peptide (hUbA1 UFD region, 1038-1050) (peptide)
peptide: {Biotin-Ahx}-LCCNDESGEDVEV-NH2
modifications: cysteine pairing not given here
notes: human UbA1 (E1), UFD region, residues 1038-1050; source: synthetic peptide (Fmoc solid phase, RP-HPLC purified)
Kd [3]: 10 µM

B3: L2-scrambled peptide (peptide)
peptide: {Biotin-Ahx}-SDPSKTSEYQPSE-NH2
SMILES: C[C@@H](O)[C@H](NC(=O)[C@H](CCCCN)NC(=O)[C@H](CO)NC(=O)[C@@H]1CCCN1C(=O)[C@H](CC(=O)O)NC(=O)[C@H](CO)NC(=O)CCCCCNC(=O)CCCC[C@@H]1SC[C@@H]2NC(=O)N[C@@H]21)C(=O)N[C@@H](CO)C(=O)N[C@@H](CCC(=O)O)C(=O)N[C@@H](Cc1ccc(O)cc1)C(=O)N[C@@H](CCC(N)=O)C(=O)N1CCC[C@H]1C(=O)N[C@@H](CO)C(=O)N[C@@H](CCC(=O)O)C(N)=O
notes: scrambled order of the residues of peptide L2; also called ScrL2; source: synthetic peptide (Fmoc solid phase, RP-HPLC purified)
Kd [3]: > 80 µM

B4: L2 peptide (hUbA1 cross loop, 615-627) (peptide)
peptide: {Biotin-Ahx}-TESYSSSQDPPEK-NH2
SMILES: C[C@@H](O)[C@H](NC(=O)CCCCCNC(=O)CCCC[C@@H]1SC[C@@H]2NC(=O)N[C@@H]21)C(=O)N[C@@H](CCC(=O)O)C(=O)N[C@@H](CO)C(=O)N[C@@H](Cc1ccc(O)cc1)C(=O)N[C@@H](CO)C(=O)N[C@@H](CO)C(=O)N[C@@H](CO)C(=O)N[C@@H](CCC(N)=O)C(=O)N[C@@H](CC(=O)O)C(=O)N1CCC[C@H]1C(=O)N1CCC[C@H]1C(=O)N[C@@H](CCC(=O)O)C(=O)N[C@@H](CCCCN)C(N)=O
notes: human UbA1 (E1), cross loop region, residues 615-627; source: synthetic peptide (Fmoc solid phase, RP-HPLC purified)
Kd [3]: 20 µM

Second part, the molecule after the results:

Solubility [1]: Not soluble | solubility, in words [1]: insoluble; also recorded: low solubility
Molecule: LELCCNDESGEDV [U2, peptide from hUbA1 UFD region, residues 1036-1048, biotinylated derivative]

KD (µM) [2]: No binding
Molecule: RDEFEGLFKQPAEN [S2, peptide corresponding to helix H19 in the hUbA1 SCCH region, residues 649-662, designed as negative control]

Solubility [1]: Not soluble | solubility, in words [1]: insoluble
Molecule: IHVSDQELQSA [S1, peptide from hUbA1 SCCH region (Cys-cap), residues 807-817, biotinylated derivative]

binding to UbcH10, in words [2]: low affinity | KD (µM) [2]: No binding
Molecule: SQDPPEKSIPI [L1, peptide from hUbA1 cross loop, residues 621-631, biotinylated derivative]
